Laboratory results reported in patent publication US11279711B2, “Condensed heterocyclic derivates as BCL-2 inhibitors for the treatment of neoplastic diseases” (Newave Pharmaceutical Inc., priority 2017, dated 2022).

Columns and labels:
Mcl-1 = Mcl-1 (Homo sapiens, UniProt Q07820); settings: cited from earlier work
[1] = test system: BCL-2-dependent acute lymphoblastic leukemia (ALL) cell line RS4;11; test: In vitro anti-proliferation assay (ATPlite) in RS4;11; type: cell-based; settings: Homo sapiens; RS4;11, 5% FBS, about 72 hours; read-out: IC50, RS4; 115% FBS
Protocol: Biological Example 2: In Vitro Anti-Proliferation Assay in BCL-2-Dependent Acute Lymphoblastic Leukemia (ALL) Cell Line RS4;11
(§1) Cell antiproliferation was assayed by PerkinElmer ATPlite™ Luminescence Assay System. Briefly, the various test cancer cell lines were plated at a density of about 1×10^4 cells per well in Costar 96-well plates, and were incubated with different concentrations of compounds for about 72 hours in medium supplemented with 5% FBS or 10% normal human serum (NHS). One lyophilized substrate solution vial was then reconstituted by adding 5 mL of substrate buffer solution, and was agitated gently until the solution was homogeneous. About 50 μL of mammalian cell lysis solution was added to 100 μL of cell suspension per well of a microplate, and the plate was shaken for about five minutes in an orbital shaker at −700 rpm. This procedure was used to lyse the cells and to stabilize the ATP. Next, 50 μL substrate solution was added to the wells and microplate was shaken for five minutes in an orbital shaker at ˜700 rpm. Finally, the luminescence was measured by a PerkinElmer TopCount® Microplate Scintillation Counter. Such assays, carried out with a range of doses of test compounds, allowed the determination of the cellular anti-antiproliferative IC50 of the compounds of the present invention. The following table lists the IC50 values of certain compounds of the invention.

MV411 = test: In vitro anti-proliferation assay (ATPlite), MV411; type: cell-based; settings: Homo sapiens, MV4-11; 5% FBS, about 72 hours
Protocol: (§2) Biological Example 3: In Vitro Anti-Proliferation Assay in Small Cell Lung Cancer (SCLC) Cell Line
as §1, with “FBS.” for “FBS or 10% normal human serum (NHS).”, “˜700” for “−700”, “invention.” for “invention. The following table lists the IC50 values of certain compounds of the invention.”

Granta = test: In vitro anti-proliferation assay (ATPlite), Granta; type: cell-based; settings: 5% FBS, about 72 hours
Protocol: as §2
as §1, with “FBS.” for “FBS or 10% normal human serum (NHS).”, “˜700” for “−700”, “invention.” for “invention. The following table lists the IC50 values of certain compounds of the invention.”

RS4;11 cells = settings: cited from earlier work
RS4;11 xenografts = settings: single dose of 100 mg/kg; cited from earlier work
Toledo = test: In vitro anti-proliferation assay (ATPlite), Toledo; type: cell-based; settings: Homo sapiens, 5% FBS, about 72 hours
Protocol: as §2
as §1, with “FBS.” for “FBS or 10% normal human serum (NHS).”, “˜700” for “−700”, “invention.” for “invention. The following table lists the IC50 values of certain compounds of the invention.”

CLL = settings: read-out: average EC50, apoptosis in CLL; cited from earlier work
H146 = test: In vitro anti-proliferation assay (ATPlite), small cell lung cancer cell line H146; type: cell-based; settings: 5% FBS, about 72 hours
Protocol: as §2
as §1, with “FBS.” for “FBS or 10% normal human serum (NHS).”, “˜700” for “−700”, “invention.” for “invention. The following table lists the IC50 values of certain compounds of the invention.”
(§3) Cisplatin, the standard of Care of small cell lung cancer cell lines was used as the positive control drug.

[2] = test system: xenograft models of small-cell lung cancer and acute lymphoblastic leukemia; settings: oral administration, alone; cited from earlier work
SCLC H146 cell line = settings: read-out: IC50 against SCLC H146 cell line; cited from earlier work
H889 = test: In vitro anti-proliferation assay (ATPlite), small cell lung cancer cell line H889; type: cell-based; settings: 5% FBS, about 72 hours
Protocol: as §2
as §1, with “FBS.” for “FBS or 10% normal human serum (NHS).”, “˜700” for “−700”, “invention.” for “invention. The following table lists the IC50 values of certain compounds of the invention.”
as §3

Bcl-w = target: T1, Bcl-w (Homo sapiens, UniProt Q92843); settings: cited from earlier work
T1 sequence (Q92843 1-193): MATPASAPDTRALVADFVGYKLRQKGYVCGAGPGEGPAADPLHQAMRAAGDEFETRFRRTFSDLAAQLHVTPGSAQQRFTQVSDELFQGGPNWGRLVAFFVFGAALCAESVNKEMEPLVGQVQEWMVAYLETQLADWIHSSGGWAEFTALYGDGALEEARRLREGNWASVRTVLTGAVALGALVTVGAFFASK

H1963 = test: In vitro anti-proliferation assay (ATPlite), small cell lung cancer cell line H1963; type: cell-based; settings: 5% FBS, about 72 hours
Protocol: as §2
as §1, with “FBS.” for “FBS or 10% normal human serum (NHS).”, “˜700” for “−700”, “invention.” for “invention. The following table lists the IC50 values of certain compounds of the invention.”
as §3

H345 xenograft = settings: 100 mg/kg/day, H345 xenograft model; cited from earlier work
circulating platelets = settings: clinical trial; dose-limiting thrombocytopenia; cited from earlier work
[3] = in vivo; cited from earlier work
[4] = cited from earlier work
[5] = Mice PK study, oral dosing; type: in vivo; settings: CD-1 mouse, 10 mg/kg; for AUC(0-t) / bioavailability / half-life: plasma; for bioavailability: read-out: Bioavailabilty; for half-life: read-out: t ½ (converted)
Protocol: Biological Example 4: Mice PK Study
The pharmacokinetics of compounds were evaluated in CD-1 mouse via Intravenous and Oral Administration. The IV dose was administered as a slow bolus in the Jugular vein, and oral doses were administered by gavage. The formulation for IV dosing was 5% DMSO in 20% HPBCD in water, and the PO formulation was 2.5% DMSO, 10% EtOH, 20% Cremphor EL, 67.5% D5W. The PK time point for the IV arm was 5, 15, 30 min, 1, 2, 4, 6, 8, 12, 24 hours post dose, and for PO arm was 15, 30 min, 1, 2, 4, 6, 8, 12, 24 hours post dose. Approximately 0.03 mL blood was collected at each time point. Blood of each sample was transferred into plastic micro centrifuge tubes containing EDTA-K2 and collect plasma within 15 min by centrifugation at 4000 g for 5 minutes in a 4° C. centrifuge. Plasma samples were stored in polypropylene tubes. The samples were stored in a freezer at −75±15° C. prior to analysis. Concentrations of compounds in the plasma samples were analyzed using a LC-MS/MS method. WinNonlin (Phoenix™, version 6.1) or other similar software was used for pharmacokinetic calculations. The following pharmacokinetic parameters were calculated, whenever possible from the plasma concentration versus time data: IV administration: C0, CL, Vd, T1/2, AUCinf, AUClast, MRT, Number of Points for Regression; PO administration: Cmax, Tmax, T1/2, AUCinf, AUClast, F %, Number of Points for Regression. The pharmacokinetic data was described using descriptive statistics such as mean, standard deviation. Additional pharmacokinetic or statistical analysis was performed at the discretion of the contributing scientist, and was documented in the data summary.

Sequence of Mcl-1 (Q07820 whole entry): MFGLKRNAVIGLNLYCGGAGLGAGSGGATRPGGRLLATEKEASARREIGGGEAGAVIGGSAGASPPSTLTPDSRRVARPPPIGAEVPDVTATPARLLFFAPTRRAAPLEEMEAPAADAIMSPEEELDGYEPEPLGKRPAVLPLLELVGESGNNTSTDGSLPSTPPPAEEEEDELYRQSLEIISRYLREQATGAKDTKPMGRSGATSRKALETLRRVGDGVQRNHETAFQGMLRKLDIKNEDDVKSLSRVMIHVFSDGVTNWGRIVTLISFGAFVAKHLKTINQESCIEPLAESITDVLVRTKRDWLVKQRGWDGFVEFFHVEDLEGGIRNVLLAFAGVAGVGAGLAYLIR

In the case of CC1(C)CCC(CN2CCN(c3ccc(C(=O)NS(=O)(=O)c4ccc(NCC5CCOCC5)c([N+](=O)[O-])c4)c(Oc4cnc5[nH]ccc5c4)c3)CC2)=C(c2ccc(Cl)cc2)C1 [ABT-199], the “activity to Mcl-1” value (Mcl-1) is listed as “no activity”, the IC50 [1] is listed as 5.8 nM and the IC50 (MV411) is listed as 20.1 nM. For the same molecule, the IC50 (Granta) was 42.5 nM, the EC50 (RS4;11 cells) was 8 nM and the “maximal tumor growth inhibition” value (RS4;11 xenografts) was 95%. The tumor growth delay (RS4;11 xenografts) was 152%, the IC50 (Toledo) was 98.1 nM and the EC50 (CLL) was 3 nM.
For CC1(C)CCC(c2ccc(Cl)cc2)=C(CN2CCN(c3ccc(C(=O)NS(=O)(=O)c4ccc(N[C@H](CCN5CCOCC5)CSc5ccccc5)c(S(=O)(=O)C(F)(F)F)c4)cc3)CC2)C1 [ABT-263], the IC50 (H146; Homo sapiens, NCI-H146) is listed as 28 nM, the tumor regression [2] is listed as “complete tumor regressions” and the IC50 (SCLC H146 cell line) is listed as 110 nM. The IC50 (H889; Homo sapiens, NCI-H889) was 32.4 nM, the Ki (Bcl-w) was ≤ 1 nM and the IC50 (H1963; Homo sapiens, NCI-H1963) was 41.7 nM. The TGI (H345 xenograft) was 80%, the “treated tumors indicating at least a 50% reduction in tumor volume” value (H345 xenograft) was 20% and the “number of circulating platelets” value (circulating platelets) was “rapid, concentration-dependent decrease in the number of circulating platelets”.
In the case of CN(C)CC[C@H](CSc1ccccc1)Nc1ccc(S(=O)(=O)NC(=O)c2ccc(N3CCN(Cc4ccccc4-c4ccc(Cl)cc4)CC3)cc2)cc1[N+](=O)[O-] [ABT-737], the oral bioavailability [3] is given as “not orally bioavailable” and the aqueous solubility [4] is given as “low aqueous solubility”.
N.N.[Cl][Pt][Cl] [Cisplatin, reference compound] showed an IC50 (H146) of 4590 nM, an IC50 (H889) of 7080 nM and an IC50 (H1963) of 1670 nM.
CC1(C)CCC(CN2CCN(c3ccc(C(=O)NS(=O)(=O)c4ccc(NCC5CCOCC5)c([N+](=O)[O-])c4)c(N4CCCOc5nc6[nH]ccc6cc54)c3)CC2)=C(c2ccc(Cl)cc2)C1 [Example 2, 4-(4-((4′-chloro-5,5-dimethyl-3,4,5,6-tetrahydro-[1,1′-biphenyl]-2-yl)methyl)piperazin-1-yl)-2-(3,4-dihydro-2H-pyrrolo[3′,2′:5,6]pyrido[2,3-b][1,4]oxazepin-1(7H)-yl)-N-((3-nitro-4-(((tetrahydro-2H-pyran-4-yl)methyl)amino)phenyl)sulfonyl)benzamide] gave an IC50 (H146; Homo sapiens, NCI-H146) of 64 nM, an IC50 [1] of 0.12 nM and an IC50 (MV411) of 1.6 nM. For the same molecule, the IC50 (Granta) was 3.5 nM, the AUC(0-t) [5] was 9300 ng·h/mL and the bioavailability [5] was 49%. It also gave a half-life [5] of 4.3 h, an IC50 (H889; Homo sapiens, NCI-H889) of 1 nM and an IC50 (Toledo) of 8.1 nM. For the same molecule, the IC50 (H1963; Homo sapiens, NCI-H1963) was 5.6 nM.
With CC1(C)CCC(CN2CCN(c3ccc(C(=O)NS(=O)(=O)c4ccc(NCC5(F)CCOCC5)c([N+](=O)[O-])c4)c(N4CCCOc5nc6[nH]ccc6cc54)c3)CC2)=C(c2ccc(Cl)cc2)C1 [Example 3, 4-(4-((4′-chloro-5,5-dimethyl-3,4,5,6-tetrahydro-[1,1′-biphenyl]-2-yl)methyl)piperazin-1-yl)-2-(3,4-dihydro-2H-pyrrolo[3′,2′:5,6]pyrido[2,3-b][1,4]oxazepin-1(7H)-yl)-N-((4-(((4-fluorotetrahydro-2H-pyran-4-yl)methyl)amino)-3-nitrophenyl)sulfonyl)benzamide] the IC50 (H146; Homo sapiens, NCI-H146) was 43 nM, the IC50 [1] was < 0.1 nM and the AUC(0-t) [5] was 4160 ng·h/mL. For the same molecule, the bioavailability [5] was 30%, the half-life [5] was 2.6 h and the IC50 (H889; Homo sapiens, NCI-H889) was 0.9 nM. For the same molecule, the IC50 (H1963; Homo sapiens, NCI-H1963) was 4.2 nM.
With CC1(C)CCC(CN2CCN(c3ccc(C(=O)NS(=O)(=O)c4ccc(NC[C@@H]5COCCO5)c([N+](=O)[O-])c4)c(N4CCCOc5nc6[nH]ccc6cc54)c3)CC2)=C(c2ccc(Cl)cc2)C1 [Example 8, 4-(4-[[2-(4-chlorophenyl)-4,4-dimethylcyclohex-1-en-1-yl]methyl]piperazin-1-yl)-N-[4-([[(2R)-1,4-dioxan-2-yl]methyl]amino)-3-nitrobenzenesulfonyl]-2-[14-oxa-2,4,10-triazatricyclo[7.5.0.0^[3,7]]tetradeca-1(9),2,5,7-tetraen-10-yl]benzamide] the IC50 (H146) was 50 nM, the “AUClast(h * ng/mL)” value [5] was 5,714 h * ng/mL and the Bioavailabilty [5] was 44%. For the same molecule, the “t ½” value [5] was 2.3 h, the IC50 (H889) was 0.7 nM and the IC50 (H1963) was 5.3 nM.
In the case of CC1(C)CCC(CN2CCN(c3ccc(C(=O)NS(=O)(=O)c4ccc(NC[C@H]5COCCO5)c([N+](=O)[O-])c4)c(N4CCCOc5nc6[nH]ccc6cc54)c3)CC2)=C(c2ccc(Cl)cc2)C1 [Example 9, 4-(4-[[2-(4-chlorophenyl)-4,4-dimethylcyclohex-1-en-1-yl]methyl]piperazin-1-yl)-N-[4-([[(2S)-1,4-dioxan-2-yl]methyl]amino)-3-nitrobenzenesulfonyl]-2-[14-oxa-2,4,10-triazatricyclo[7.5.0.0^[3,7]]tetradeca-1(9),2,5,7-tetraen-10-yl]benzamide], the IC50 (H146) is reported as 33 nM, the “AUClast(h * ng/mL)” value [5] is reported as 8,168 h * ng/mL and the Bioavailabilty [5] is reported as 64%. The “t ½” value [5] was 2.3 h, the IC50 (H889) was 0.7 nM and the IC50 (H1963) was 4.7 nM.
